Results published in patent US20150045410A1, “METHOD OF REGULATING CFTR EXPRESSION AND PROCESSING” (University of Iowa Research Foundation, priority 2012, published 2015).

Biological target: T1, CFTR-ΔF508 (Homo sapiens, UniProt P13569, DEL508-508)
T1 construct: expressed in transfected cells
Experiment: Cell surface ELISA (anti-HA) in HeLa cells stably expressing HA-tagged CFTR-ΔF508
Format: cell-based
Conditions: HeLa-ΔF508-CFTR-HA cells treated daily with drugs, 72 hr post-treatment, vs DMSO (FIG. 28, 29)

T1 sequence (P13569 with tags, fused parts or gaps DEL508-508): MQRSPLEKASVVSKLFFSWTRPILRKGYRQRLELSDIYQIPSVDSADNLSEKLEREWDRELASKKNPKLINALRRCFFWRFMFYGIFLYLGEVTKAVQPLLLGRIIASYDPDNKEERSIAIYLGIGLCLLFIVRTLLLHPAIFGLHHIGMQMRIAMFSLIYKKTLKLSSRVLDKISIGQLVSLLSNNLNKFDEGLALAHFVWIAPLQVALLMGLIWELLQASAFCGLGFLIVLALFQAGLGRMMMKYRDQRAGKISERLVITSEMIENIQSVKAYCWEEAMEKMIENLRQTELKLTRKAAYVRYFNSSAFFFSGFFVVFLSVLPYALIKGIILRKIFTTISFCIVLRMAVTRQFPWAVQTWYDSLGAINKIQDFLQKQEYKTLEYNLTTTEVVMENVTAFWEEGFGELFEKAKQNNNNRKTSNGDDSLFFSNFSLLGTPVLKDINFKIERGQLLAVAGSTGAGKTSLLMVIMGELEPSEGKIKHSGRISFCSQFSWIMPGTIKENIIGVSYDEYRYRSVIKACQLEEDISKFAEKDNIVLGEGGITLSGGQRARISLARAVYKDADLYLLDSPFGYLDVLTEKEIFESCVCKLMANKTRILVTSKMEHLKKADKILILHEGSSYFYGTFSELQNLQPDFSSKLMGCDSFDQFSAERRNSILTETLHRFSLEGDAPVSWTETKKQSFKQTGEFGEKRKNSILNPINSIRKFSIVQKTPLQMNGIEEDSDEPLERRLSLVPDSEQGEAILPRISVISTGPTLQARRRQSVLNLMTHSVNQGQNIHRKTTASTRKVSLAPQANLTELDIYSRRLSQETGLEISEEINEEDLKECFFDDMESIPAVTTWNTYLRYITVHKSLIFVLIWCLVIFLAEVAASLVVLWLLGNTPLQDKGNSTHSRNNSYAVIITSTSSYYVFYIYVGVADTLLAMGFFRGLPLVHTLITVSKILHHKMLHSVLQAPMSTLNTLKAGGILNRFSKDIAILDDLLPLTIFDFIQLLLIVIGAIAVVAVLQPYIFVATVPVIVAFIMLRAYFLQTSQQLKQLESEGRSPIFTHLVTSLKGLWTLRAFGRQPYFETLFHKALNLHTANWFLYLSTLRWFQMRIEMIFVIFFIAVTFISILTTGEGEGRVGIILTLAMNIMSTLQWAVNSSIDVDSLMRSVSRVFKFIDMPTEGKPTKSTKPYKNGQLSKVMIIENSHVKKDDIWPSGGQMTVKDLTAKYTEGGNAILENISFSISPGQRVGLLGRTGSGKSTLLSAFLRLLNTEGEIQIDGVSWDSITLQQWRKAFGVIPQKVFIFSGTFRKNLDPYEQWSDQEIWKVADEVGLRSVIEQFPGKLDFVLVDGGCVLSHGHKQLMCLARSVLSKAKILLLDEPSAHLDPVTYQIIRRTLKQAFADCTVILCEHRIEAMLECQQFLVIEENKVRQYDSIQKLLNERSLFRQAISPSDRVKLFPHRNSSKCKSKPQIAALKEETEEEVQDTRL

SMILES | surface display of ΔF508-CFTR (live cell-surface ELISA) | surface display of ΔF508-CFTR (live cell-surface ELISA) (listed as pyridostigmine)
CN(C)C(=O)Oc1cccc([N+](C)(C)C)c1 [Neostigmine, 3-{[(dimethylamino)carbonyl]oxy}-N,N,N-trimethylbenzenaminium] | increased | –
CN(C)C(=O)Oc1ccc[n+](C)c1 [Pyridostigmine] | rescues ΔF508-CFTR trafficking | increased
